Where a SMILES comes first, the peptide text is derived from it. [ ]: non-standard residue; d: D form. dNMeF = CN[C@H](Cc1ccccc1)C(=O)O; NMeL = CN[C@@H](CC(C)C)C(=O)O; dNMeL = CN[C@H](CC(C)C)C(=O)O; NMeV = CN[C@H](C(=O)O)C(C)C; NMeA = CN[C@@H](C)C(=O)O; dNMeA = CN[C@H](C)C(=O)O
Assays:
[1] = PAMPA
[2] = in vitro; conditions: PAMPA, PAMPA_Papp_Avg

| Compound | PAMPA_R1 [1] | PAMPA_R3 [1] | Papp [2] |
| --- | --- | --- | --- |
| CC(C)C[C@@H]1C(=O)N2CCC[C@@H]2C(=O)N(C)[C@@H](C(C)C)C(=O)N[C@@H](C(C)C)C(=O)N2CCC[C@H]2C(=O)N2CCC[C@@H]2C(=O)N[C@@H](C)C(=O)N[C@H](C(C)C)C(=O)N(C)[C@@H](CC(C)C)C(=O)N[C@@H](C)C(=O)N1C [Design D10.6, PRO DPRO ALA DVAL *LEU ALA *DLEU DPRO *VAL VAL] (cyclo(A[dNMeL][dP][NMeV]VP[dP]A[dV][NMeL])) | 1.62E-06 | 7.67E-07 | 1.22 ×10⁻⁶ cm/s |
| CC[C@@H](C)[C@H]1NC(=O)[C@H]2CCCN2C(=O)[C@@H](C)NC(=O)[C@@H](CC(C)C)N(C)C(=O)[C@H]([C@@H](C)CC)NC(=O)[C@@H](C(C)C)NC(=O)[C@@H](CC(C)C)N(C)C(=O)[C@@H]2CCCN2C(=O)[C@@H]2CCCN2C1=O [Design D9.26, DPRO DILE PRO PRO *DLEU DVAL ILE *DLEU DALA] (cyclo(I[dNMeL][dA][dP][dI]PP[dNMeL][dV])) | 2.58E-06 | 2.23E-06 | 2.32 ×10⁻⁶ cm/s |
| CC(C)C[C@@H]1NC(=O)[C@@H]2CCCN2C(=O)[C@H]2CCCN2C(=O)[C@@H](C)N(C)C(=O)[C@@H](CC(C)C)N(C)C(=O)[C@H](C(C)C)NC(=O)[C@@H](C)N(C)C(=O)[C@H]2CCCN2C(=O)[C@@H]2CCCN2C1=O [Design D9.22, DPRO *DALA VAL *DLEU *DALA DPRO PRO LEU PRO] (cyclo(LP[dP][dNMeA]V[dNMeL][dNMeA][dP]P)) | 1.87E-07 | 1.82E-07 | 0.189 ×10⁻⁶ cm/s |
| CC(C)C[C@H]1NC(=O)[C@@H]2CCCN2C(=O)[C@@H]2CCCN2C(=O)[C@@H](C)NC(=O)[C@@H](Cc2ccccc2)N(C)C(=O)[C@H]2CCCN2C1=O [Design D6.4, DPRO *DPHE DALA PRO PRO DLEU] (cyclo(PP[dL][dP][dNMeF][dA])) | 1.85e-05 cm/s | 1.58e-05 cm/s | 13.9 ×10⁻⁶ cm/s |
| CC(C)C[C@@H]1C(=O)N[C@H](CC(C)C)C(=O)N2CCC[C@@H]2C(=O)N2CCC[C@H]2C(=O)N(C)[C@H](CC(C)C)C(=O)N[C@H](CC(C)C)C(=O)N2CCC[C@@H]2C(=O)N2CCC[C@H]2C(=O)N1C [Design D8.4, DPRO PRO *DLEU DLEU DPRO PRO *DLEU DLEU] (cyclo([dNMeL][dL][dP]P[dNMeL][dL][dP]P)) | 1.49E-07 | 1.12E-07 | 0.136 ×10⁻⁶ cm/s |
| CC(C)C[C@@H]1NC(=O)[C@@H]2CCCN2C(=O)[C@H]2CCCN2C(=O)[C@H](CC(C)C)NC(=O)[C@H](C)N(C)C(=O)[C@H]2CCCN2C(=O)[C@@H](CC(C)C)NC1=O [Design D7.6, DLEU DPRO *ALA LEU DPRO PRO LEU] (cyclo(L[dL][dP][NMeA]L[dP]P)) | 2.16e-06 cm/s | 6.12e-06 cm/s | 3.62 ×10⁻⁶ cm/s |
| CC[C@H](C)[C@@H]1NC(=O)[C@@H](C)N(C)C(=O)[C@H]2CCCN2C(=O)[C@H]2CCCN2C(=O)[C@H](Cc2ccccc2)NC(=O)[C@@H](CC(C)C)NC(=O)[C@@H](CC(C)C)N(C)C(=O)[C@@H]2CCCN2C1=O [Design D8.17, PRO *DLEU DLEU PHE DPRO DPRO *DALA ILE] (cyclo(F[dP][dP][dNMeA]IP[dNMeL][dL])) | 5.94E-07 | 8.83E-07 | 0.72 ×10⁻⁶ cm/s |
| CC(C)C[C@@H]1C(=O)N(C)[C@H](Cc2ccccc2)C(=O)N(C)[C@@H](CC(C)C)C(=O)N[C@H](C(C)C)C(=O)N[C@H](C)C(=O)N2CCC[C@@H]2C(=O)N2CCC[C@H]2C(=O)N[C@H](C)C(=O)N1C [Design D8.20, PRO DALA *DLEU *DPHE *LEU DVAL DALA DPRO] (cyclo([dA][dNMeL][dNMeF][NMeL][dV][dA][dP]P)) | 1.00E-06 | 1.46E-06 | 1.08 ×10⁻⁶ cm/s |

Reference: article PMC9490236, “Accurate de novo design of membrane-traversing macrocycles” (Cell, 2022)
